Experimental data from patent US10160755B2 (Plexxikon Inc., priority 2015, dated 2018).

Legend:
FLT3-ITD = molecular target: T1, FLT3-ITD (Homo sapiens, UniProt P36888); assay: FLT3-ITD biochemical kinase assay (AlphaScreen)
T1 construct: FLT3-ITD; Invitrogen #PV6190
T1 sequence (P36888 1-993): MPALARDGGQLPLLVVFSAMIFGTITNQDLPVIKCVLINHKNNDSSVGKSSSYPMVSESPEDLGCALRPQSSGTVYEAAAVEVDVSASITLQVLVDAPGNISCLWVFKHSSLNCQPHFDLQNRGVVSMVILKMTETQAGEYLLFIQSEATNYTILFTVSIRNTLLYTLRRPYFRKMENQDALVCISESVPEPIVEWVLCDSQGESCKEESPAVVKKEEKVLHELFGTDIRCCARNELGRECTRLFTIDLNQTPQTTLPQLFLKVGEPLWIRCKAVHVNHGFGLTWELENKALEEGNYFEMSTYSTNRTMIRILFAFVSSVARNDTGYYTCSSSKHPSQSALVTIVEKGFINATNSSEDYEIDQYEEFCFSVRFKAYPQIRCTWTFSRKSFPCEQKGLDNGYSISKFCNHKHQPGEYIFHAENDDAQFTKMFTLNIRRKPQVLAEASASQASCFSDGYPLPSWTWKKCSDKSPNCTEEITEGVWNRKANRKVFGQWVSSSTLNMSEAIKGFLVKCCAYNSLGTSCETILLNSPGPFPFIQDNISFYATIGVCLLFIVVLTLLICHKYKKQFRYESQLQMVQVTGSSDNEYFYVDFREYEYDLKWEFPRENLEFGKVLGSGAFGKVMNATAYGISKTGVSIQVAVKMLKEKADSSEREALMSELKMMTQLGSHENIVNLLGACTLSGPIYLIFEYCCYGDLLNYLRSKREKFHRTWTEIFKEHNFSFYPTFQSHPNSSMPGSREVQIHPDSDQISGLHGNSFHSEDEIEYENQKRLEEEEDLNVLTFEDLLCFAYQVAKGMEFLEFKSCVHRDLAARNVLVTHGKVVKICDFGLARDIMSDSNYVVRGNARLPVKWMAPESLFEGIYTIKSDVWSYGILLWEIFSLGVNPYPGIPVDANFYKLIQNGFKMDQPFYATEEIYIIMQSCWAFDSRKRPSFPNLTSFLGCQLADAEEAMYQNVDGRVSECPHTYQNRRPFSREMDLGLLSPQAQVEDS
In short: (§1)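 AlphaScreen read-out of tyrosine phosphorylation of a 30 nM biotinylated poly(Glu4-Tyr) substrate, captured on streptavidin donor and PY20 acceptor beads at room temperature. ATP for IC50 work was 100 μM with FLT3-ITD and 10 μM with FLT3-D835Y; reduced 580 nm proximity signal reflects kinase inhibition.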

FLT3-D835Y = molecular target: T2, FLT3-D835Y (Homo sapiens, UniProt P36888, D835Y); assay: FLT3-D835Y biochemical kinase assay (AlphaScreen)
T2 construct: purchased Invitrogen PV3967
T2 sequence (P36888 27-993 D835Y): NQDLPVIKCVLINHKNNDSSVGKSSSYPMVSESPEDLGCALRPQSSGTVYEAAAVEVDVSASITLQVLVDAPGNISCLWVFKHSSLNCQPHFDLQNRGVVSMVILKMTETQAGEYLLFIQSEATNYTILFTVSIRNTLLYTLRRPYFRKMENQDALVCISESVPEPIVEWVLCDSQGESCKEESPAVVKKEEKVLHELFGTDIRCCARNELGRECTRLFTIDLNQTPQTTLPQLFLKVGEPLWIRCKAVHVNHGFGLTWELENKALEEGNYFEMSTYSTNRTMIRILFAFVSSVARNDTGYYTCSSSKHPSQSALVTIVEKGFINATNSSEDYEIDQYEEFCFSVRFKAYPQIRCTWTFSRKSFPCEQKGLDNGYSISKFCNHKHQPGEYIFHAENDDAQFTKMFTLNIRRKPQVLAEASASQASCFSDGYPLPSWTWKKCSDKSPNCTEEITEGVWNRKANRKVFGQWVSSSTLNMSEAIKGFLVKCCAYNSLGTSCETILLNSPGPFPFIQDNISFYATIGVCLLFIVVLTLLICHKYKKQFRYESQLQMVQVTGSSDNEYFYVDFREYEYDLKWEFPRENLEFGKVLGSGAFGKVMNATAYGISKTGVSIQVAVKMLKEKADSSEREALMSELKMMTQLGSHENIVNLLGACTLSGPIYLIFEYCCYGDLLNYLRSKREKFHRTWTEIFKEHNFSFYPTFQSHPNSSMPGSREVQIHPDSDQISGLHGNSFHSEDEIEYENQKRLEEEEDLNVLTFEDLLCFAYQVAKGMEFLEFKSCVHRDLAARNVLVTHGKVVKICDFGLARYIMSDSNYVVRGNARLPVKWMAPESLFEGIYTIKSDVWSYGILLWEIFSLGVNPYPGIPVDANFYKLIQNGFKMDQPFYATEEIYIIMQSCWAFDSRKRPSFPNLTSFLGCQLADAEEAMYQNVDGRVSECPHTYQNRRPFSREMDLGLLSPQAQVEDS
In short: as §1

IC50 (FLT3-ITD)	IC50 (FLT3-D835Y)	Structure (SMILES)
0.0001 to 1 µM	0.0001 to 1 µM	CC(C)(C)n1cnc2ccc(-c3c[nH]c4ncc(-c5cnn(C(F)F)c5)nc34)cc21 [P-255, 7-(3-tert-butylbenzimidazol-5-yl)-2-[1-(difluoromethyl)pyrazol-4-yl]-5H-pyrrolo[2,3-b]pyrazine]
0.0001 to 1 µM	0.0001 to 1 µM	CC(C)(C)n1cnc2ccc(-c3c[nH]c4ncc(-c5cccc(NS(C)(=O)=O)c5)nc34)cc21 [P-097, N-[3-[7-(3-tert-butylbenzimidazol-5-yl)-5H-pyrrolo[2,3-b]pyrazin-2-yl]phenyl]methanesulfonamide]
0.0001 to 1 µM	0.0001 to 1 µM	COc1cc(-c2cnc3[nH]cc(-c4ccc5ncn(C(C)(C)CO)c5c4)c3n2)ccn1 [P-186, 2-[6-[2-(2-methoxy-4-pyridyl)-5H-pyrrolo[2,3-b]pyrazin-7-yl]benzimidazol-1-yl]-2-methyl-propan-1-ol]
0.0001 to 1 µM	0.0001 to 1 µM	CC(C)(C)n1cnc2ccc(-c3c[nH]c4ncc(C#Cc5cccc(C#N)c5)cc34)cc21 [P-242, 3-[2-[3-(3-tert-butylbenzimidazol-5-yl)-1H-pyrrolo[2,3-b]pyridin-5-yl]ethynyl]benzonitrile]
0.0001 to 1 µM	0.0001 to 1 µM	FC(F)(F)Oc1cccc(-c2cnc3[nH]cc(-c4ccc5ncn(C6CCCNC6)c5c4)c3n2)c1 (stereo not drawn) [P-193, 7-[3-(3-piperidyl)benzimidazol-5-yl]-2-[3-(trifluoromethoxy)phenyl]-5H-pyrrolo[2,3-b]pyrazine]
0.0001 to 1 µM	0.0001 to 1 µM	COc1cc(-c2cnc3[nH]cc(-c4ccc5ncn(C(C)(C)C)c5c4)c3n2)ccn1 [P-099, 7-(3-tert-butylbenzimidazol-5-yl)-2-(2-methoxy-4-pyridyl)-5H-pyrrolo[2,3-b]pyrazine]
0.0001 to 1 µM	0.0001 to 1 µM	COc1cc(-c2cnc3[nH]cc(-c4ccc5ncn(C(C)C)c5c4)c3n2)ccn1 [P-113, 7-(3-isopropylbenzimidazol-5-yl)-2-(2-methoxy-4-pyridyl)-5H-pyrrolo[2,3-b]pyrazine]
0.0001 to 1 µM	0.0001 to 1 µM	COC(=O)N1CCCC(n2cnc3ccc(-c4c[nH]c5ncc(-c6ccnc(OC)c6)nc45)cc32)C1 (stereo not drawn) [P-261, methyl 3-(6-(2-(2-methoxypyridin-4-yl)-5H-pyrrolo[2,3-b]pyrazin-7-yl)-1H-benzo[d]imidazol-1-yl)piperidine-1-carboxylate]
0.0001 to 1 µM	0.0001 to 1 µM	COc1cc(C(=O)Nc2cnc3[nH]cc(-c4ccc5ncn(C(C)(C)C)c5c4)c3c2)ccn1 [P-245, N-[3-(3-tert-butylbenzimidazol-5-yl)-1H-pyrrolo[2,3-b]pyridin-5-yl]-2-methoxy-pyridine-4-carboxamide]
